Assay results reported in patent US6462078B1, “Epoxyvibsanin B” (priority 2001, dated 2002).

How the values were obtained:
Format in all cases: cell-based, human
[1] = system: IL-12 production; assay: IL-12 inhibitory assay in PBMC stimulated with IFN-γ and LPS (IL-12 p70 sandwich ELISA)
Protocol: Mononuclear cells from human peripheral blood (PBMC) were harvested from a leukopak using standard procedures. The cells, diluted to three millions per mL, were maintained in RPMI medium supplemented with fetal calf serum (10%), penicillin (100 U/mL), streptomycin (100 μg/mL) and […] (2 mM). Human interferon gamma (IFN-γ, Boehringer Mannheim; catalog no. 1040596) was diluted to 60 units/mL using the cell-containing supplemented medium. 100 μL of the resulting cell culture was added to each well of a 96-well U-shaped bottom microtiter plate, and incubated overnight in a humidified 37° C., 7% CO2 incubator. Epoxyvibsanin B in 4×RPMI stock medium was added to each well with a final concentration of 1 μg/mL, followed by the addition of lipopolysaccharide (LPS, Serratia […] Sigma; catalog no. L-4766) in 4×RPMI stock medium with a final concentration of 1 μg/mL. The plate was gently vortexed and continuously incubated for 16 hrs. IFN-γ and LPS have stimulated PBMC for IL-12 production. The supernatant from each cell culture was harvested, and the secreted IL-12 p70 in the supernatant was quantitated with a sandwich ELISA using anti-human IL-12 antibodies (R & D systems; catalog no. mAb 611 and catalog no. BAF 219). An epoxyvibsanin B-free control experiment was also perfonned. […] The inhibition of IL-12 production was further tested in parallel experiments using two cell lines: PBMC and the human promonocytic leukemia mononuclear cells (THP-1 cells). As described above, PBMC were added to a 96-well plate with 500,000 cells per well, and stimulated for IL-12 production with IFN-γ (200 U/ml) and LPS (1 μg/ml). In parallel, THP-1 cells were added to a 96-well plate with 800,000 cells per well, and stimulated for IL-12 production with IFN-γ (2000 U/ml) and Staph Aureus Cowan I (0.05%, SAC or Pansorbin; from Calbiochem; lot no. B15921). The supernatant from each cell culture was harvested and analyzed for IL-12 p70 with a sandwich ELISA by using the antibodies indicated above. […]

[2] = system: IL-12 production; assay: IL-12 inhibitory assay in THP-1 cells stimulated with IFN-γ and SAC (IL-12 p70 sandwich ELISA); conditions: THP-1 800,000 cells per well, IFN-γ 2000 U/ml + SAC 0.05%; read-out: IC50, inhibition of IL-12 production
Protocol: The inhibition of IL-12 production was further tested in parallel experiments using two cell lines: PBMC and the human promonocytic leukemia mononuclear cells (THP-1 cells). As described above, PBMC were added to a 96-well plate with 500,000 cells per well, and stimulated for IL-12 production with IFN-γ (200 U/ml) and LPS (1 μg/ml). In parallel, THP-1 cells were added to a 96-well plate with 800,000 cells per well, and stimulated for IL-12 production with IFN-γ (2000 U/ml) and Staph Aureus Cowan I (0.05%, SAC or Pansorbin; from Calbiochem; lot no. B15921). The supernatant from each cell culture was harvested and analyzed for IL-12 p70 with a sandwich ELISA by using the antibodies indicated above. […] The activity of epoxyvibsanin B in inhibiting IL-12 production is 10-fold that of a known anti-inflammatory compound, dexamethazone.

[3] = system: PBMC
Protocol: (§1) Epoxyvibsanin B was also tested for cytotoxicity using a Cell Titer 96 Aqueous Non-radioactive kit (Promega, order no. G5421). Phenazine methosulfate (Sigma; catalog no. P 5812) was added as an electron donor to a cell culture containing PBMC (500,000 cells per well) and epoxyvibsanin B (final concentration of 1 μg/ml). 3-(4,5-Dimethylthiazole-2-yl)-5-(3-carbomethoxyphenyl)-2-(4-sulphophenyl)-2H-tetrazolium (MTS) was then added. Cells were incubated for 2 hours in a humidified 37° C., 7% CO2 incubator. The supernatant from the cell culture was harvested and its absorbance at 490 nm was recorded. Cell viability was determined based on the level of MTS (which reacted with mitochondria dehydrogenases enzymes in the living cells), as compared to that obtained from an epoxyvibsanin B-free control experiment. Epoxyvibsanin B was further tested for cytotoxicity toward THP-1 cells.

[4] = system: THP-1 cells; assay: Cytotoxicity assay (MTS) in THP-1 cells
Protocol: as §1

epoxyvibsanin B
IC50 ([1]; PBMC 500,000 cells per well, IFN-γ 200 U/ml + LPS 1 μg/ml, read-out: IC50, inhibition of IL-12 production): ~1 nM | inhibition of IL-12 production, as compared with control ([1]; PBMC, IFN-γ 60 units/mL + LPS 1 μg/mL, compound 1 μg/mL, 16 hrs): 90% | activity in inhibiting IL-12 production relative to dexamethazone ([1]; compared with dexamethazone, cell type not specified): 10 fold | IC50 [2]: 20 nM | CC50 [3]: 5000 nM | cytotoxicity compared with dexamethazone [3]: lower than that of dexamethazone | CC50 [4]: 10000 nM
